One assay concerns the target T1, CIC-1 ion channel (Rattus norvegicus, UniProt P35524).
T1 construct: from tissue; host or cells: whole soleus muscle of 12-14 week old Wistar rats
T1 sequence (P35524 1-994): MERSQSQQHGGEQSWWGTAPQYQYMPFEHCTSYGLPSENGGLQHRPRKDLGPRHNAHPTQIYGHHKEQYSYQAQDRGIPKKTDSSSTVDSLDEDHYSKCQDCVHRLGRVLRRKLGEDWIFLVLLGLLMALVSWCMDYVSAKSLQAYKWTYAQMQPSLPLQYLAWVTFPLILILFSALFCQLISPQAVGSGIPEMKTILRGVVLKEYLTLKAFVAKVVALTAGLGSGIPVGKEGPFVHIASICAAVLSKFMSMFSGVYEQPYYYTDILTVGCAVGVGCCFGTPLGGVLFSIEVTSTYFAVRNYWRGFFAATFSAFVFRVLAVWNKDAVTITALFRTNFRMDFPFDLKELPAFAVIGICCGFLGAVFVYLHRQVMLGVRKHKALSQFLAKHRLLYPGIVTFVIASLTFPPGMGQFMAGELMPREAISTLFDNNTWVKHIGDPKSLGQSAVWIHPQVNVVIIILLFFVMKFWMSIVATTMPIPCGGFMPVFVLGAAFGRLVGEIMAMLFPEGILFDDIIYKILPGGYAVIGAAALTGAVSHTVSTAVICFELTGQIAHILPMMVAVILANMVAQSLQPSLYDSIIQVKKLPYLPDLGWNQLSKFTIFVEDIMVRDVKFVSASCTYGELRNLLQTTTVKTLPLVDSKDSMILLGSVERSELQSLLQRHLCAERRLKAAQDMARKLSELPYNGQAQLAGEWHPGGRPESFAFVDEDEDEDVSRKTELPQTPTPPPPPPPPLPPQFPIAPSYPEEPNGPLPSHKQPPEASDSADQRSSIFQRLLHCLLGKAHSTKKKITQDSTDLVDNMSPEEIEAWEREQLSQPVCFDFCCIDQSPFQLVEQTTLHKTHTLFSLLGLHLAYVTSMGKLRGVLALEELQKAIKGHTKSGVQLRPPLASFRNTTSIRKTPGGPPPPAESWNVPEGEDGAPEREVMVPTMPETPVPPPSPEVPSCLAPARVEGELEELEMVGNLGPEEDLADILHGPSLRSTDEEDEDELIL
Description: Electrophysiological measurement of compound inhibition of CIC-1 in rat muscle (Gm in soleus fibres, three micro-electrodes). It counts as cell-based. Particulars: Gm in individual fibres of whole rat soleus muscles, approx. 30° C., four increasing compound concentrations; read-out: Potency Range (EC50, inhibition of CIC-1 ion channel). The method, then: Apparent CIC-1 affinity was reported by the concentration of compound at which 50% of the compound's full inhibition of CIC-1 was observed (EC50) (see also WO2019/115777).
Experimentally, Gm was measured in individual fibres of whole rat soleus muscles using a three micro-electrodes technique described in this example and in full detail elsewhere (Riisager et al., Determination of cable parameters in skeletal muscle fibres during repetitive firing of action potentials. Journal of Physiology, 2014, 592, 4417-4429). Briefly, intact rat soleus muscles were dissected out from 12-14 week old Wistar rats and placed in an experimental chamber that was perfused with a standard Krebs Ringer solution containing 122 mM NaCl, 25 mM NaHCO3, 2.8 mM KCl, 1.2 mM KH2PO4, 1.2 mM MgSO4, 1.3 mM CaCl2, 5.0 mM D-glucose. During experiments, the solution was kept at approx. 30° C. and continuously equilibrated with a mixture of 95% O2 and 5% CO2, pH ~7.4. The experimental chamber was placed in Nikon upright microscope that was used to visualize individual muscle fibres and the three electrodes (glass pipettes filled with 2 M potassium citrate). For Gm measurements, the electrodes were inserted into the same fibre with known inter-electrode distances of 0.35-0.5 mm (V1-V2, X1) and 1.1-1.5 mm (V1-V3, X3). The membrane potential of the impaled muscle fibre was recorded by all electrodes. Two of the electrodes were furthermore used to inject 50 ms current pulses of −30 nA. […] The steady state voltage deflection at each distance was divided by the magnitude of current injected (−30 nA) and the resulting transfer resistances were plotted against inter-electrode distance and the data was fitted to a mono-exponential function from which Gm could be calculated using linear cable theory.
To establish a dose response relationship, Gm was first determined in 10 muscle fibres in the absence of compound and then at four increasing compound concentrations with Gm determinations in 5-10 fibres at each concentration. The average Gm values at each concentration were plotted against compound concentration and the data was fitted to sigmoidal function to obtain an EC5o value.

The test system of assay [1] is isolated rat soleus nerve-muscle preparations. Description: Measurement of force in an in vitro model: recovery of nerve-stimulated contractile force after tubocurarine. The conditions noted are these: 40 min, after 40 mins of compound exposure, tubocurarine (115 nM) for 90 minutes, read-out: Point increase (%): percentage increase of initial force that was restored; for activation at 50 µM: 50 μM of test compound; for activation at 100 µM: 100 μM of test compound; for activation at 25 µM: 25 μM of test compound; for activation at 10 µM: 10 μM of test compound. The method, then:
In one aspect, the invention relates to a method for recovery of force in muscles with neuromuscular dysfunction, said method comprising administering a compound or a composition as defined herein to a subject in need thereof. The term “recovery of force in muscles with neuromuscular dysfunction” as used herein refers to the ability of a compound to recover contractile force in nerve-stimulated healthy rat muscle after exposure to submaximal concentration (115 nM) of tubocurarine for 90 minutes.
Recovery of force is quantified as the percentage of the force prior to tubocurarine that is recovered after addition of the compound. In one embodiment, said recovery of force is >5%, such as >10%, such as >15%, such as >20%, such as >25%, such as >30%, such as >35%.
The current disclosure relates to compounds that inhibit CIC-1 ion channels and increase muscle excitability and thereby improve muscle function in clinical conditions where muscle activation is failing. Such conditions result in loss of contractile function of skeletal muscle, weakness and excessive fatigue. In this series of experiments the compounds were tested for their ability to restore contractile function of isolated rat muscle when the neuromuscular transmission had been compromised akin to neuromuscular disorders.
Experimentally, soleus muscles from 4-5 week old rats were isolated with the motor nerve remaining attached. The nerve-muscle preparations were mounted in experimental setups that enabled electrical stimulation of the motor nerve. Stimulation of the motor nerve led to activation of the muscle fibres and ensuing force production that was recorded. The nerve-muscle preparations were also in these experiments incubated in the standard Krebs Ringer (see example 15) and the solution was heated to 30° C. and continuously equilibrated with a mixture of 95% O2 and 5% CO2, pH ~7.4.
After mounting the nerve-muscle preparation in the experimental setup, the contractile function of the muscle was initially assessed under the control conditions. Sub-maximal concentration of tubocurarine (115 nM), an acetylcholine receptor antagonist, was then added to the experimental bath to impose partial inhibition of the ability of the motor nerve to activate the muscle fibres. The experimental condition mimics the failing neuromuscular transmission in a range of neuromuscular disorders. After addition of tubocurarine the contractile force declined over the next 90 minutes to 10-50% of the control force. The test compound was then added to obtain the required compound concentration in the bath and the contractile force recovered was measured. To quantify the ability of the compound to restore force the percentage of the initial force that was restored was determined after 40 mins of compound exposure and the point increase is reported in Tables 3 to 7.

The term EC50 denotes the concentration at which the effect is half-maximal.

Consider `Cc1c(Cl)cc2c(c1C(=O)O)CCC2` [Compound A-1, 6-Chloro-5-methyl-2,3-dihydro-1H-indene-4-carboxylic acid], for which the concentration giving a half-maximal response (EC50) on CIC-1 ion channel lay within 10 to 20 µM. Further, the activation at 50 µM in assay [1] amounted to 23%.
As for `Cc1c(Br)cc2c(c1C(=O)O)CCC2` [Compound A-2, 6-Bromo-5-methyl-2,3-dihydro-1H-indene-4-carboxylic acid], the activation at 50 µM in assay [1] was 19%.
On the same count and under the same terms, next, `O=C(O)c1c2c(cc(Cl)c1OCF)CCC2` [Compound A-7, 6-Chloro-5-(fluoromethoxy)-2,3-dihydro-1H-indene-4-carboxylic acid]: 36%; `O=C(O)c1c2c(cc(Cl)c1OC(F)(F)F)CCC2` [Compound A-11, 6-Chloro-5-(trifluoromethoxy)-2,3-dihydro-1H-indene-4-carboxylic acid]: 31%.
On the same count and under the same terms, the same measure for `Cc1c(Cl)cc2c(c1C(=O)O)OCC2` [Compound A-12, 5-Chloro-6-methyl-2,3-dihydro-1-benzofuran-7-carboxylic acid]: 19%.
On the same count and under the same terms, next, `Cc1cc2c(c(C(=O)O)c1Cl)CCCCC2` [Compound A-34, 2-chloro-3-methyl-6,7,8,9-tetrahydro-5H-benzo[7]annulene-1-carboxylic acid]: 20%; `O=C(O)c1c(F)c(Cl)cc2c1OCC2` [Compound A-43, 5-Chloro-6-fluoro-2,3-dihydro-1-benzofuran-7-carboxylic acid]: 25%.
For `CN1CCCc2c1cc(Cl)c(F)c2C(=O)O` [Compound A-45, 7-Chloro-6-fluoro-1-methyl-1,2,3,4-tetrahydroquinoline-5-carboxylic acid], the activation at 100 µM in assay [1] was 38%.
As for `O=C(O)c1c(F)c(I)cc2c1CCCC2` [Compound A-55, 2-Fluoro-3-iodo-5,6,7,8-tetrahydronaphthalene-1-carboxylic acid], the activation at 50 µM in assay [1] worked out at 42%.
For the molecule `Cc1cc2c(c(C(=O)O)c1F)CCCO2` [Compound A-58, 6-Fluoro-7-methyl-3,4-dihydro-2H-1-benzopyran-5-carboxylic acid], the activation at 50 µM in assay [1] is 48%.
On to `O=C(O)c1c(F)c(C(F)(F)F)cc2c1CCCC2` [Compound A-60, 2-Fluoro-3-(trifluoromethyl)-5,6,7,8-tetrahydronaphthalene-1-carboxylic acid], for which the activation at 50 µM in assay [1] came out at 21%.
Turning to `O=C(O)c1c(Cl)c(F)cc2c1CCC2` [Compound A-62, 5-Chloro-6-fluoro-2,3-dihydro-1H-indene-4-carboxylic acid], in assay [1], the activation at 25 µM was found to be 14%.
Still for that read-out and setting: the same measure for `O=C(O)c1c(Cl)c(F)cc2c1SCCC2` [Compound A-64, 7-Chloro-6-fluoro-3,4-dihydro-2H-1-benzothiopyran-8-carboxylic acid]: 34%.
`O=C(O)c1c(Br)c(Cl)cc2c1CCCC2` [Compound A-66, 2-Bromo-3-chloro-5,6,7,8-tetrahydronaphthalene-1-carboxylic acid]: the activation at 10 µM in assay [1] amounted to 25%.
Regarding `O=C(O)c1c(Cl)c(Br)cc2c1CCCC2` [Compound A-67, 3-bromo-2-chloro-5,6,7,8-tetrahydronaphthalene-1-carboxylic acid], the activation at 10 µM in assay [1] worked out at 25%.
For the molecule `O=C(O)c1c(Cl)c(Cl)cc2c1CN(Cc1ccccc1)C2` [Compound A-68, 2-Benzyl-5,6-dichloro-2,3-dihydro-1H-isoindole-4-carboxylic acid], the activation at 100 µM in assay [1] worked out at 40%.
Turning to `CC1(C)CCc2cc(F)c(Cl)c(C(=O)O)c2O1` [Compound A-75, 7-Chloro-6-fluoro-2,2-dimethyl-8-chromancarboxylic acid], in assay [1], the activation at 10 µM worked out at 10%.
Regarding `O=C(O)c1c(F)c(Cl)cc2c1CCN2Cc1ccccc1` [Compound A-76, 1-Benzyl-6-chloro-5-fluoro-4-indolinecarboxylic acid], the activation at 25 µM in assay [1] was found to be 45%.
As to `CN1CCCc2cc(F)c(Cl)c(C(=O)O)c21` [Compound A-77, 7-Chloro-6-fluoro-1-methyl-1,2,3,4-tetrahydro-8-quinolinecarboxylic acid], in assay [1], the activation at 10 µM is 18%.
For `O=C(O)c1c(F)c(Cl)cc2c1OCCC2Cc1ccccc1` (stereo not shown) [Compound A-78, 4-Benzyl-6-chloro-7-fluoro-8-chromancarboxylic acid], the activation at 25 µM in assay [1] was 35%.
As to `COc1c(Cl)cc2c(c1C(=O)O)CCCO2` [Compound A-79, 7-Chloro-6-methoxy-5-chromancarboxylic acid], the activation at 10 µM in assay [1] was 34%.
Take `COc1cc2c(c(C(=O)O)c1F)OCCC2Cc1ccccc1` (stereo not shown) [Compound A-80, 4-Benzyl-7-fluoro-6-methoxy-8-chromancarboxylic acid]: in assay [1], the activation at 50 µM stood at 22%.
As for `COc1c(F)cc2c(c1C(=O)O)C(Cc1ccccc1)CCO2` (stereo not shown) [Compound A-81, 4-Benzyl-7-fluoro-6-methoxy-5-chromancarboxylic acid], in assay [1], the activation at 50 µM was 19%.
`CCOc1c(Cl)cc2c(c1C(=O)O)CCCC2` [Compound A-82, 3-Chloro-2-ethoxy-5,6,7,8-tetrahydro-1-naphthoic acid]: in assay [1], the activation at 10 µM was determined as 61%.

Source of the values: patent publication US20260199273A1, “Compounds for the Treatment of Neuromuscular Disorders” (NMD PHARMA A/S, priority 2022, published 2026).
